This is an account of results in paper PMC8286840, “Identifying SARS-CoV-2 antiviral compounds by screening for small molecule inhibitors of Nsp3 papain-like protease” (Biochemical Journal, 2021).

Assay [1] addresses T1, SARS-CoV-2 PLpro (nsp3 1564–1878) (Severe acute respiratory syndrome coronavirus 2, UniProt P0DTD1). Nature of the assay: biochemical. On the set-up: FRET-quenched peptide (Pro3) cleavage by PLpro, 10 min pre-incubation, slope over 20 min, normalised to no-compound control. The note with it: low concentration screen, read-out: % of control remaining.
The target in assay [2] is T1, SARS-CoV-2 PLpro (nsp3 1564–1878). Description: biochemical. The note with it: high concentration screen, read-out: % of control remaining. On the set-up: FRET-quenched peptide (Pro3) cleavage by PLpro, 10 min pre-incubation, slope over 20 min, normalised to no-compound control.

Read-outs that look alike come from different tables or passages of the source. Where a SMILES comes first, the peptide text is derived from it. Bridges are numbered along the chain shown (N, C = ends). [ ]: non-standard residue; d: D form. 2Nal = N[C@@H](Cc1ccc2ccccc2c1)C(=O)O; Lys(iPr) = CC(C)NCCCC[C@H](N)C(=O)O

Regarding `N[C@@H](Cc1c[nH]c2ccccc12)C(=O)O` [L-Tryptophan], the figures for the remaining activity at 1.25 µM in assay [1] (Well no.=1471) and in assay [1] (Well no.=7361) were 96.7% and 100%, respectively. Further, the remaining activity at 3.75 µM in assay [2] (Well no.=1471) came to 98.2%; in assay [2] (Well no.=7361), 100%.

For `CC(C)[C@H](N)C(=O)N[C@@H](Cc1ccccc1)C(=O)O` [L-Valyl-L-phenylalanine] (H-Val-Phe-OH), in assay [1] (Well no.=8650), the remaining activity at 1.25 µM was determined as 103%. The remaining activity at 3.75 µM in assay [2] (Well no.=8650) worked out at 101%.

As to `C=CC[C@H](N)C(=O)O` [L-allylglycine], the remaining activity at 1.25 µM in assay [1] (Well no.=292) was 91.4%. In addition, in assay [2] (Well no.=292), the remaining activity at 3.75 µM worked out at 91.8%.

For the compound `C[C@](N)(Cc1ccc(O)c(O)c1)C(=O)O` [L-alpha-Methyl DOPA], the remaining activity at 1.25 µM in assay [1] (Well no.=1039) came to 97.7%. The remaining activity at 3.75 µM in assay [2] (Well no.=1039) was 98.3%.

Consider `C[C@](N)(Cc1ccc(O)cc1)C(=O)O` [L-alpha-Methyl-p-tyrosine], for which the remaining activity at 1.25 µM in assay [1] (Well no.=843) is 104%. The remaining activity at 3.75 µM in assay [2] (Well no.=843) amounted to 106%.

`O=C(O)[C@@H]1CCN1` [L-azetidine-2-carboxylic acid]: the remaining activity at 1.25 µM in assay [1] (Well no.=103) is 105%. In addition, in assay [2] (Well no.=103), the remaining activity at 3.75 µM came out at 104%.

Consider `C[N+](C)(C)C[C@H](O)CC(=O)[O-]` [L-carnitine], for which, in assay [1] (Well no.=8100), the remaining activity at 1.25 µM is 106%. Also, in assay [2] (Well no.=8100), the remaining activity at 3.75 µM was 104%.

For the compound `N[C@@H](Cc1cc(I)c(Oc2cc(I)c(O)c(I)c2)c(I)c1)C(=O)O` [L-thyroxine], the remaining activity at 1.25 µM came out at 86.3% in assay [1] (Well no.=2298) and 102% in assay [1] (Well no.=7299). The remaining activity at 3.75 µM in assay [2] (Well no.=2298) came to 88.2%; in assay [2] (Well no.=7299) it was 105%.

Regarding `O=C(Nc1cnc(-c2ccncc2F)c(-c2cccnc2)n1)C1CC1` [LAS101057], the remaining activity at 1.25 µM in assay [1] (Well no.=8599) was 105%. Besides, the remaining activity at 3.75 µM in assay [2] (Well no.=8599) is 103%.

`O=C(c1cn(Cc2cncn2Cc2ccc(Br)cc2)cc1-c1cccc2ccccc12)N1CCOCC1` [LB42708]: the remaining activity at 1.25 µM in assay [1] (Well no.=8766) stood at 99.3%. In addition, in assay [2] (Well no.=8766), the remaining activity at 3.75 µM is 91.4%.

Consider `N#Cc1ccc([C@H]2CCc3cncn32)c(F)c1` [LCI699], for which the remaining activity at 1.25 µM in assay [1] (Well no.=8526) turned out to be 98.2%. In addition, in assay [2] (Well no.=8526), the remaining activity at 3.75 µM worked out at 98.2%.

For the compound `CN[C@@H](C)C(=O)N[C@H](C(=O)N1CCC[C@H]1c1nc(C(=O)c2ccc(F)cc2)cs1)C1CCCCC1` [LCL161], the remaining activity at 1.25 µM in assay [1] (Well no.=6594) is 91.2%. In addition, in assay [2] (Well no.=6594), the remaining activity at 3.75 µM was determined as 94.5%.

In the case of `c1ccc2c(-c3cnn4cc(-c5ccc(N6CCNCC6)cc5)cnc34)ccnc2c1` [LDN193189], the remaining activity at 1.25 µM in assay [1] (Well no.=4956) was determined as 99.3%. Further, the remaining activity at 3.75 µM in assay [2] (Well no.=4956) was 97.7%.

On to `CC(=O)O/N=C1\C(=O)N(Cc2cc(Cl)ccc2Cl)c2ccc(Cl)cc21` [LDN-57444], for which the remaining activity at 1.25 µM in assay [1] (Well no.=5908) was found to be 94.9%. For the same compound, in assay [2] (Well no.=5908), the remaining activity at 3.75 µM amounted to 91.7%.

Regarding `CN1CCc2ccccc2Cc2[nH]c3ccccc3c2CC1` [LE 300], in assay [1] (Well no.=1027), the remaining activity at 1.25 µM amounted to 101%. For the same compound, the remaining activity at 3.75 µM in assay [2] (Well no.=1027) was found to be 101%.

Turning to `C/C(O)=C(\C#N)C(=O)Nc1cc(Br)ccc1Br` [LFM-A13 - 2-Cyano-N-(2,5-dibromophenyl)-3-hydroxy-2-butenamide], the remaining activity at 1.25 µM in assay [1] (Well no.=2384) is 101%. For the same compound, the remaining activity at 3.75 µM in assay [2] (Well no.=2384) is 102%.

For the compound `C/C(O)=C(\C#N)C(=O)Nc1cc(Br)ccc1Br` [LFM-A13], the remaining activity at 1.25 µM in assay [1] (Well no.=789) turned out to be 99.1%. Also, in assay [2] (Well no.=789), the remaining activity at 3.75 µM turned out to be 97.7%.

On to `Clc1ccc(Nc2nc3ccccc3c3nc(C4CCCCC4)[nH]c23)cc1Cl` [LUF6000], for which, in assay [1] (Well no.=8661), the remaining activity at 1.25 µM worked out at 93.9%. The remaining activity at 3.75 µM in assay [2] (Well no.=8661) is 93.1%.

As to `CC1(C)C(=O)N(CCN2CCC(C(=O)c3ccc(F)cc3)CC2)c2ccccc21` [LY310762], the remaining activity at 1.25 µM in assay [1] (Well no.=7237) amounted to 102%. Also, the remaining activity at 3.75 µM in assay [2] (Well no.=7237) stood at 100%.

Take `CCc1c(CC(N)=O)c2cc(OCCCP(=O)(O)O)ccc2n1Cc1ccccc1` [LY311727]: in assay [1] (Well no.=5502), the remaining activity at 1.25 µM amounted to 102%. Moreover, the remaining activity at 3.75 µM in assay [2] (Well no.=5502) turned out to be 109%.

For `C[C@H](NC(=O)[C@@H](O)c1cc(F)cc(F)c1)C(=O)N[C@@H]1C(=O)N(C)c2ccccc2-c2ccccc21` [LY411575], in assay [1] (Well no.=4689), the remaining activity at 1.25 µM turned out to be 102%. Further, the remaining activity at 3.75 µM in assay [2] (Well no.=4689) is 101%.

In the case of `O=C1NC(=O)C(c2cnc3ccccn23)=C1c1cn2c3c(cc(F)cc13)CN(C(=O)N1CCCCC1)CC2` [LY2090314], the remaining activity at 1.25 µM in assay [1] (Well no.=5645) was 98.7%. The remaining activity at 3.75 µM in assay [2] (Well no.=5645) was 98.2%.

With `c1ccc(-c2nn3c(c2-c2ccnc4cc(OCCN5CCOCC5)ccc24)CCC3)nc1` [LY2109761], the remaining activity at 1.25 µM in assay [1] (Well no.=4685) turned out to be 103%. In addition, the remaining activity at 3.75 µM in assay [2] (Well no.=4685) came out at 103%.

Turning to `Cc1cccc(-c2nn3c(c2-c2ccnc4ccc(C(N)=O)cc24)CCC3)n1` [LY2157299], the remaining activity at 1.25 µM in assay [1] (Well no.=4856) was found to be 99.9%. In assay [2] (Well no.=4856), the remaining activity at 3.75 µM came out at 98.9%.

In the case of `CC(C)(C)Cn1c(N)nc2ccc(-c3[nH]c(C(C)(C)C)nc3-c3ccc(F)cc3)nc21` [LY2228820], the remaining activity at 1.25 µM in assay [1] (Well no.=4915) stood at 98.6%. In addition, the remaining activity at 3.75 µM in assay [2] (Well no.=4915) worked out at 99.6%.

In the case of `CC(C)NCCCC[C@H](NC(=O)[C@H]1CCC(=O)N[C@@H](Cc2ccccc2)C(=O)N[C@@H](Cc2ccc(O)cc2)C(=O)N[C@@H](CCCCNC(C)C)C(=O)N[C@H](CCCN=C(N)N)C(=O)N[C@@H](Cc2ccc3ccccc3c2)C(=O)NCC(=O)N1)C(N)=O` [LY2510924] (FY[Lys(iPr)][dR][2Nal]G[dE][Lys(iPr)]-NH2; lactam N-7), the remaining activity at 1.25 µM in assay [1] (Well no.=8513) came to 101%. Further, the remaining activity at 3.75 µM in assay [2] (Well no.=8513) stood at 102%.

As for `O=C(Nc1ncc(SCCN2CCCC2)s1)[C@]1(c2ccc(S(=O)(=O)C3CC3)cc2)C[C@H]1C1CCCCC1` [LY2608204], the remaining activity at 1.25 µM in assay [1] (Well no.=4772) came to 100%. Also, in assay [2] (Well no.=4772), the remaining activity at 3.75 µM was 99.2%.

Consider `Cc1cc(Nc2cc(CN3CCOCC3)c3nc(C)c(Cc4ccc(Cl)cc4F)n3n2)n[nH]1` [LY2784544], for which, in assay [1] (Well no.=4806), the remaining activity at 1.25 µM was 98.3%. The remaining activity at 3.75 µM in assay [2] (Well no.=4806) was 101%.

Consider `C[C@@]1(c2cc(-c3cncnc3)c(F)cc2F)CCSC(N)=N1` [LY2811376], for which the remaining activity at 1.25 µM in assay [1] (Well no.=4949) amounted to 101%. The remaining activity at 3.75 µM in assay [2] (Well no.=4949) is 103%.

As for `NC1=N[C@@]2(c3cc(NC(=O)c4ccc(F)cn4)ccc3F)COC[C@H]2CS1` [LY2886721], in assay [1] (Well no.=4774), the remaining activity at 1.25 µM stood at 99.9%. The remaining activity at 3.75 µM in assay [2] (Well no.=4774) is 102%.

Consider `CN(C(=O)c1ccc(F)cc1C(F)(F)F)C1CCN(c2nnc(-c3ccnn3C)c3ccccc23)CC1` [LY2940680], for which the remaining activity at 1.25 µM in assay [1] (Well no.=4890) was 88.9%. In assay [2] (Well no.=4890), the remaining activity at 3.75 µM is 82.4%.
